Experimental data published in US5670538A, “Use of prodelphinidins for obtaining medicaments intended for the treatment of arthrosis” (Laboratoires Dolisos, priority 1992, dated 1997).
Read-outs that look alike come from different tables or passages of the source.

Test system: human articular chondrocytes
Test: Radioimmunoassay of cartilaginous proteoglycans (PG) produced in tridimensional culture of human chondrocytes
Format: cell-based
Conditions: for PG in the clusters over 12 days: 0-12 days
Source text: The model used for testing the proanthocyanidols, namely the tridimensional culture of human chondrocytes allows chondrorepair to be quantified by the production of matrix substances: type II collagen, proteoglycans, and chondroresorption by the reduction in the levels of prostaglandin E2 and of OH° and O°2 type free radicals produced.
1. Tridimensional culture of human chondrocytes
The technique used has been described in detail (Bassleer et al., 1986).
Briefly, human articular chondrocytes are cultivated in DMEM (Dulbecco's Modification of Eagle's Medium--ICN--Gand, Belgium) with either Ultroser G 1% (GIBCO, Gand, Belgium) or 10% of foetal calf serum (ICN--Gand--Belgium), and 50 μg of ascorbic acid/ml added to it. The cartilage originates from the apparently normal zone of heads of human femur suffering from arthrosis, immediately after an operation carried out to insert a total hip prosthesis; it can also originate from the head of a healthy femur, but which has undergone a traumatism and has had to be replaced. This cartilage is then digested by clostridial collagenase 1 mg/ml (Boehringer-Mannheim, Germany) in a buffer (NaCl 120 mM, CaCl2 1 mM, KCl 5 mM, KH2 PO4 1 mM, NaHCO3 25 mM, glucose 2 mM and Hepes 30 mM, pH 7.4) for 24 hours. After 6 successive washings and centrifugations, the chondrocytes, isolated from their matrix, are cultured in flasks (10^6 cells/2 ml of culture medium) placed on a gyrator (10 rpm). The cultures are kept at 37° C. in an atmosphere of air 95%-CO2 5% (Bassleer et al., 1986). Cultivated under these conditions, after 4 to 5 days the chondrocytes form a tridimensional cluster in each flask. These clusters, which at first have a flocculent appearance, then tend to condense during the culture. After two weeks, their diameter is, in general, from 1 to 2 mm.
The fresh weight of the clusters increases with the duration of the culture, above all during the few first days.
2. Radioimmunoassay of cartilaginous proteoglycans (PG)
The PGs are measured with a radioimmunoassay (RIA) which is specific and sensitive to human cartilaginous PGs (Gysen et al. 1984). The PGs were extracted from human cartilage, according to the methods described by Roughley et al., (1981) and by Bayliss and Venn (1980). The antiserum against the cartilaginous PGs was obtained from the rabbit according to the technique of Vaitukaitis et al. (1971). The radioimmunoassay is carried out in a 0.4 ml volume consisting of 0.1 ml of tracer solution (15000 to 20000 cpm ^125 I-PG, labelled by the chloramine T method (Greenwood, 1973). 0.1 ml of anti-PG antiserum diluted to 1/5000 in phosphate-buffered saline (PBS-50 mM PO4, 150 mM NaCl ), containing BSA (5 g/l bovine serum albumin and 6.7 mM sodium azide) (incubation buffer) and 0.2 ml of several dilutions of the culture medium or of the cluster extract or also of the antigen (0.5 -500 ng/tube).
After four days at 4° C., the free PGs* (radioactive PGs) are separated from the PG*-antibody complexes by double precipitation (Franchimont et al., 1983).
The sensitivity of the assay is 0.6 ng/tube. The accuracy of measurement is of the order of 4%. The coefficients of the intra- and inter assay variation are less than 10% and 20% respectively.
The antibodies are directed against the antigenic determinants of the central protein of PG. There is a complete crossed reaction with human PGs of cartilage from the ribs, vertebral disks and trachea, even with PGs extracted from veins or arteries. There is no cross reaction with glycosaminoglycans or with PGs extracted from foetal tissues or the small PGs from bone.
The PGs are measured directly in the culture medium. As for the chondrocyte clusters, they are washed 3 times in a phosphate-buffered saline (PBS-50 mM PO4, 150 mM NaCl pH 7.4) containing protease inhibitors (Oegema et al., 1975:100 mM 6-aminohexanoic acid, 10 mM EDTA, 50 mM benzamidine hydrochloride, 5.10^-8 M trypsin inhibitor, 6.7 mM sodium azide and 200 U/ml superoxide dismutase). […]

## Oc1cc(O)c2c(c1)O[C@H](c1cc(O)c(O)c(O)c1)[C@@H](O)[C@@H]2c1c(O)cc(O)c2c1O[C@H](c1cc(O)c(O)c(O)c1)[C@@H](O)[C@@H]2c1c(O)cc(O)c2c1O[C@H](c1cc(O)c(O)c(O)c1)[C@@H](O)C2 [Substance Ic, GC-(4 alpha→8) GC-(4 a→8)-GC]
1% Ultroser G, 1 μg/ml
  PG in the clusters over 12 days: 886 ± 114 ng/μg DNA
  PGs released in the culture medium, effect in words: significant effect
1% Ultroser G, 10 μg/ml
  PG in the clusters over 12 days: 1046 ± 74 ng/μg DNA
1% Ultroser G, 100 μg/ml
  PG in the clusters over 12 days: 1184 ± 33 ng/μg DNA
1% Ultroser G, culture time 0-4 days, 1 μg/ml
  PGs released in the culture medium: 15.9 ± 1.15 μg/μg DNA/96 h
1% Ultroser G, culture time 0-4 days, 10 μg/ml
  PGs released in the culture medium: 19.1 ± 1.2 μg/μg DNA/96 h
1% Ultroser G, culture time 0-4 days, 100 μg/ml
  PGs released in the culture medium: 21.1 ± 1.0 μg/μg DNA/96 h
1% Ultroser G, culture time 4-8 days, 1 μg/ml
  PGs released in the culture medium: 3.7 ± 0.15 μg/μg DNA/96 h
1% Ultroser G, culture time 4-8 days, 10 μg/ml
  PGs released in the culture medium: 4.4 ± 0.52 μg/μg DNA/96 h
1% Ultroser G, culture time 4-8 days, 100 μg/ml
  PGs released in the culture medium: 4.9 ± 0.45 μg/μg DNA/96 h
1% Ultroser G, culture time 8-12 days, 1 μg/ml
  PGs released in the culture medium: 1.32 ± 0.7 μg/μg DNA/96 h
1% Ultroser G, culture time 8-12 days, 10 μg/ml
  PGs released in the culture medium: 1.53 ± 0.15 μg/μg DNA/96 h
1% Ultroser G, culture time 8-12 days, 100 μg/ml
  PGs released in the culture medium: 1.75 ± 0.05 μg/μg DNA/96 h
1% Ultroser G, cumulative, 1 μg/ml
  Proteoglycans released during the 12 days of culture, Abs: 20.9 μg/μg DNA/12 days
1% Ultroser G, cumulative, 10 μg/ml
  Proteoglycans released during the 12 days of culture, Abs: 25 μg/μg DNA/12 days
1% Ultroser G, cumulative, 100 μg/ml
  Proteoglycans released during the 12 days of culture, Abs: 27.8 μg/μg DNA/12 days
1% Ultroser G, three concentrations studied
  Concentrations of PG in the clusters, effect in words: significantly stimulated and in a dose-dependent way
Homo sapiens, Chondrocyte, 288 h, 1% Ultroser G, cumulative, 1 μg/ml, control = 100, read-out: Proteoglycans released during the 12 days of culture, %
  activity at 1 µg/mL: 127%
Homo sapiens, Chondrocyte, 288 h, 1% Ultroser G, cumulative, 10 μg/ml, control = 100, read-out: Proteoglycans released during the 12 days of culture, %
  activity at 10 µg/mL: 150%
Homo sapiens, Chondrocyte, 288 h, 1% Ultroser G, cumulative, 100 μg/ml, control = 100, read-out: Proteoglycans released during the 12 days of culture, %
  activity at 100 µg/mL: 170%
Homo sapiens, Chondrocyte, foetal calf serum, Table 14, 0-4 days, 10 μg/ml, control = 100%, read-out: PG in the culture medium, % of control
  activity at 10 µg/mL: 120%
Homo sapiens, Chondrocyte, foetal calf serum, Table 14, 0-4 days, 100 μg/ml, control = 100%, read-out: PG in the culture medium, % of control
  activity at 100 µg/mL: 160%
Homo sapiens, Chondrocyte, foetal calf serum, Table 14, 4-8 days, 10 μg/ml, control = 100%, read-out: PG in the culture medium, % of control
  activity at 10 µg/mL: 118%
Homo sapiens, Chondrocyte, foetal calf serum, Table 14, 4-8 days, 100 μg/ml, control = 100%, read-out: PG in the culture medium, % of control
  activity at 100 µg/mL: 121%
Homo sapiens, Chondrocyte, foetal calf serum, Table 15, 0-4 days, 10 μg/ml, control = 100%, read-out: PG in the culture medium, % of control
  activity at 10 µg/mL: 132%
Homo sapiens, Chondrocyte, foetal calf serum, Table 15, 0-4 days, 100 μg/ml, control = 100%, read-out: PG in the culture medium, % of control
  activity at 100 µg/mL: 140%
Homo sapiens, Chondrocyte, foetal calf serum, Table 15, 4-8 days, 10 μg/ml, control = 100%, read-out: PG in the culture medium, % of control
  activity at 10 µg/mL: 117%
Homo sapiens, Chondrocyte, foetal calf serum, Table 15, 4-8 days, 100 μg/ml, control = 100%, read-out: PG in the culture medium, % of control
  activity at 100 µg/mL: 138%
Homo sapiens, Chondrocyte, foetal calf serum, Table 16, 0-8 days, 10 μg/ml, control = 100%, read-out: PG in the clusters over 8 days, % of control
  activity at 10 µg/mL: 117%
Homo sapiens, Chondrocyte, foetal calf serum, Table 16, 0-8 days, 100 μg/ml, control = 100%, read-out: PG in the clusters over 8 days, % of control
  activity at 100 µg/mL: 132%
Homo sapiens, Chondrocyte, foetal calf serum, Table 17, 0-8 days, 10 μg/ml, control = 100%, read-out: PG in the clusters over 8 days, % of control
  activity at 10 µg/mL: 125%
Homo sapiens, Chondrocyte, foetal calf serum, Table 17, 0-8 days, 100 μg/ml, control = 100%, read-out: PG in the clusters over 8 days, % of control
  activity at 100 µg/mL: 139%
Foetal calf serum, 10 and 100 μg/ml
  PGs in the clusters, effect in words: significantly increased
Foetal calf serum, Table 14, 0-4 days, 10 μg/ml
  PG in the culture medium: 7.8 ± 1.51 μg/μg DNA - 96 H
Foetal calf serum, Table 14, 0-4 days, 100 μg/ml
  PG in the culture medium: 10.4 ± 1.19 μg/μg DNA - 96 H
Foetal calf serum, Table 14, 4-8 days, 10 μg/ml
  PG in the culture medium: 2.34 ± 0.08 μg/μg DNA - 96 H
Foetal calf serum, Table 14, 4-8 days, 100 μg/ml
  PG in the culture medium: 2.40 ± 0.35 μg/μg DNA - 96 H
Foetal calf serum, Table 15, 0-4 days, 10 μg/ml
  PG in the culture medium: 7.0 ± 1.19 μg/μg DNA - 96 H
Foetal calf serum, Table 15, 0-4 days, 100 μg/ml
  PG in the culture medium: 7.5 ± 0.96 μg/μg DNA - 96 H
Foetal calf serum, Table 15, 4-8 days, 10 μg/ml
  PG in the culture medium: 2.0 ± 0.17 μg/μg DNA - 96 H
Foetal calf serum, Table 15, 4-8 days, 100 μg/ml
  PG in the culture medium: 2.4 ± 0.25 μg/μg DNA - 96 H
Foetal calf serum, Table 16, 0-8 days, 10 μg/ml
  PG in the clusters over 8 days: 915 ± 75 ng/μg DNA
Foetal calf serum, Table 16, 0-8 days, 100 μg/ml
  PG in the clusters over 8 days: 1035 ± 121 ng/μg DNA
Foetal calf serum, Table 17, 0-8 days, 10 μg/ml
  PG in the clusters over 8 days: 718.2 ± 62.61 ng/μg DNA
Foetal calf serum, Table 17, 0-8 days, 100 μg/ml
  PG in the clusters over 8 days: 799.5 ± 85.9 ng/μg DNA
